From patent US20240374535A1, “COMPOSITIONS AND METHODS FOR TREATING BIOFILM DISORDERS AND INFECTIONS” (AHV International B.V., priority 2021, published 2024)
Where two headings read alike, the source gives them in different places.

Legend:
[1] = test system: udder cleft wound; experiment: In vivo udder cleft dermatitis test: wound assessment after spray treatment; design: species or system cow; details: for Conclusion (effect on udder cleft wound): over 60 days, all cows of the group
Method: An example of a biofilm-related disorder is Udder Cleft Dermatitis (UCD), which relates to a chronic wound. In this Example, di-alkyl thiosulfonates, dialkyl thiosulfinates and di-alkyl disulfides were tested for their effect on cows affected by UCD.
Experiments were performed to examine the effect of various sprays containing water (control), a test compound, or a reference compound (CTC spray, which contains chlorotetracycline hydrochloride, and was obtained from Dechra veterinary products).
0.35 mL of the spray was sprayed on an udder cleft wound per treatment. Treatments took place once a day at t=0, at t=3 days and t=6 days. In Table 6, the assessment qualifications that are used in Table 7, are explained.

[2] = test system: Staphylococcus epidermis ATCC 35984; experiment: MIC assay (planktonic growth inhibition, OD600); format: cell-based, S. epidermidis; details: for IC50: read-out: S. epidermidis MIC50; for IC90: read-out: S. epidermidis MIC90
Method: (§1) The exact weighed amount was noted and the volume of solvent to reach a 80 mM dilution calculated. Half of the volume was added first, by adding Tween 80. In a second step, the other half of the volume DMSO was added and the closed tube inverted 5-10 times and then vortexed very thoroughly for at least 30 seconds. If after this procedure unsolved material was still visible, the tube was placed in a shaker at 37° C. at 150 rpm for at least 30 minutes. […] For the MBEC assay (method 1.3) the solution needs to be diluted to a final concentration of 2 mM in 0.9% saline solution and then further diluted to 1 mM, 0.5 mM, 0.25 mM and 0.125 mM in saline. Those dilutions were added as treatment to the 96 well plates with the grown biofilm (see method 3).
(§2) Frozen aliquots of Staphylococcus epidermis ATCC 35984 and Pseudomonas aeruginosa ATCC 27853 were used to inoculate a tryptic soy agar (TSA) plate and incubated overnight at 37° C. After incubation 3-5 well-isolated colonies with the same morphology were selected from the TSA plate and resuspended in 2 mL 0.9% saline solution with 3-6 glass beads and vortexed. The optical density at 600 nm (OD600) of the bacterial suspension was measured with a spectrophotometer (Evolution™ 201/220 UV-Visible Spectrophotometer, Thermo Fisher Scientific) and diluted to an OD600 of 0.0008, which resembles 10^6 CFU/mL.
(§3) The MIC assay was performed in a flat-bottom 96-microtiter plate. 50 μL of MHB-II was added into columns 2-11, and 100 μL to column 12 for sterility control. 100 μL of the 8 mM test compound solution (method 1) was added to column 1. A two-fold dilution series of the solution in MHB-II was achieved by resuspending 50 μL of the 8 mM solution from column 1 to column 2. This step was repeated until column 10. The respective concentration of Tween 80 and DMSO in column 1 was 2.5%, which is two-fold diluted throughout the plate. 50 μL of the bacterial suspension was added to column 1-11. The microtiter plates were sealed with adhesive polyethylene film for sealing microplates (Diversified Biotech) and incubated for 24 h at 37° C. After incubation the OD was measured at 600 nm with the Varioskan (Thermo Fisher Scientific). […] This assay was repeated three times in three independent experiments.

[3] = test system: Pseudomonas aeruginosa ATCC 27853; experiment: MIC assay (planktonic growth inhibition, OD600); format: cell-based, P. aeruginosa; details: for IC50 / IC90: Pseudomonas aeruginosa; for IC50: read-out: P. aeruginosa MIC50; for IC90: read-out: P. aeruginosa MIC90
Method: as §1, §2, §3

[4] = test system: Staphylococcus epidermis ATCC 35984 biofilm; experiment: MBEC assay (biofilm eradication, CFU log reduction); format: cell-based, S. epidermidis; details: for minimal effective concentration: read-out: S. epidermidis MBEC mM with log reduction ≥1
Method: as §1
(§4) Frozen aliquots of Staphylococcus epidermis ATCC 35984 and Pseudomonas aeruginosa ATCC 27853 were used to inoculate 20 mL of Tryptic Soy Broth (TSB) in a 100 mL Erlenmeyer flask at 37° C. and 150 rpm and incubated overnight (Infors). The OD600 of the overnight culture was measured with a spectrophotometer (Evolution™ 201/220 UV-Visible Spectrophotometer, Thermo Fisher Scientific) and diluted to an OD600 of 0.2, which resembles 10^8 CFU/mL. The cell suspension of OD600=0.2 was seeded into a U-bottom-shaped 96 well plates by pipetting 100 μL per well in column 1-11, column 12 was filled with 100 μL medium as sterility control. The 96 well plates were sealed with adhesive polyethylene film for sealing microplates and incubated for 48 h at 37° C. at static conditions. After the biofilm growth phase, 100 μL of treatment solutions (method 1) were added to the vials resulting in treatment concentrations of 1 mM, 0.5 mM, 0.25 mM and 0.125 mM and with the respective concentration of Tween 80 and DMSO each at 0.63%, 0.32%, 0.16% and 0.08%. The same concentration was applied to four different wells of the same bacterial strain, resulting in four replicates for each concentration and strain. The treatment was incubated for 20 h at 37° C. at static conditions. After the treatment the supernatant was carefully removed and the well with the biofilm washed carefully for one time with 200 μL 0.9% saline solution. 200 μL saline solution was added and the biofilm was resuspended thoroughly. When fully homogenized then 20 μL was used for the first dilution in 180 μL 0.9% saline solution, which was prepared in a second plate. This dilution was continued until dilution step 10E−5 and 100 μL of the 10E−4 and 10E−5 dilution plated on a TSA plate. The TSA plates were incubated at 37° C. for 24 h. The colonies on the plates were enumerated, the colony forming units per mL of the dispensed biofilm and averages thereof and the log reduction in comparison with the untreated sample from the same wells plate calculated. Reduction of colony forming units goes hand in hand with the thickness of the biofilm and thus with the number bacteria that are present in the biofilm. Therefore, a significant reduction of colony forming units in the biofilm was defined at the value of log reduction ≥1 or more. This assay was repeated two times in two independent experiments)

[5] = test system: Pseudomonas aeruginosa ATCC 27853 biofilm; experiment: as above; format: cell-based, P. aeruginosa; details: for minimal effective concentration: Pseudomonas aeruginosa, read-out: P. aeruginosa MBEC mM with log reduction ≥1
Method: as §1, §4

[6] = minimal concentration reducing final OD600 by 50%, 24 h at 37° C.
[7] = minimal concentration reducing final OD600 by 90%, 24 h at 37° C.
[8] = 48 h grown biofilm, 20 h treatment, CFU log reduction vs untreated
[9] = ATCC27853, minimal concentration reducing final OD600 by 50%, 24 h at 37° C.
[10] = ATCC27853, minimal concentration reducing final OD600 by 90%, 24 h at 37° C.
[11] = ATCC27853, 48 h grown biofilm, 20 h treatment, CFU log reduction vs untreated

Compound | S. epidermidis MIC50 [2, 6] [µM] | S. epidermidis MIC90 [2, 7] [µM] | P. aeruginosa MIC50 [3, 6] [µM] | P. aeruginosa MIC90 [3, 7] [µM] | S. epidermidis MBEC mM with log reduction ≥1 [4, 8] [mM] | P. aeruginosa MBEC mM with log reduction ≥1 [5, 8] [mM] | IC50 [2, 6] [mM] | IC90 [2, 7] [mM] | IC50 [3, 9] [mM] | IC90 [3, 10] [mM] | minimal effective concentration [4, 8] [mM] | minimal effective concentration [5, 11] [mM] | other results
CCS[S+]([O-])CC (stereo not drawn) [Di-ethyl thiosulfinate, S-ethyl ethanesulfinothioate] | – | – | – | – | – | – | – | – | – | – | – | – | Conclusion (effect on udder cleft wound) [1]: No effect
Bis(4-Fluorophenyl) thiosulfonate [Bis (4-fluorophenyl) thiosulfonate] | 250 | 2000 | 2000 | 2000 | >1 | >1 | – | – | – | – | – | – | –
Di-isopropyl thiosulfonate | 2000 | 2000 | 2000 | 2000 | >1 | >1 | – | – | – | – | – | – | –
CCCCS[S+]([O-])CCCC (stereo not drawn) [Di-n-butyl thiosulfinate, S-butyl butane-1-sulfinothioate] | – | – | – | – | – | – | – | – | – | – | – | – | inflammation of the udder cleft wound after treatment ([1]; immediately after the treatment, later infection reduced and wound healed): fast inflammation reduction; Conclusion (effect on udder cleft wound) [1]: Positive effect
c1ccc(SSc2ccccc2)cc1 [Di-phenyl disulfide] | – | – | – | – | – | – | 0.125 | > 4 | 2 | > 4 | > 1 | 0.125 | Conclusion (effect on udder cleft wound) [1]: No effect
CC(C)SSC(C)C [Di-isopropyl disulfide] | – | – | – | – | – | – | > 4 | > 4 | > 4 | > 4 | > 1 | > 1 | Conclusion (effect on udder cleft wound) [1]: No effect
Bis(4-fluorophenyl) thiosulfinate [Bis (4-fluorophenyl) thiosulfinate] | 125 | 250 | 1000 | 4000 | >1 | >1 | – | – | – | – | – | – | –
c1coc(CSSCc2ccco2)c1 [Di-furfuryl disulfide] | – | – | – | – | – | – | 2 | > 4 | 2 | > 4 | > 1 | > 1 | –
Bis(4-chlorophenyl) thiosulfinate [Bis (4-chlorophenyl) thiosulfinate] | 20 | 20 | 20 | 20 | >1 | >1 | – | – | – | – | – | – | –
c1ccc(CSSCc2ccccc2)cc1 [Di-benzyl disulfide] | – | – | – | – | – | – | – | – | – | – | – | – | IC50 ([2]; 24 h): > 4 mM; IC90 ([2]; 24 h): > 4 mM; IC50 ([3]; ATCC27853, 24 h): > 4 mM; IC90 ([3]; ATCC27853, 24 h): > 4 mM; minimal effective concentration ([4]; 20 h): > 1 mM; minimal effective concentration ([5]; ATCC27853, 20 h): > 1 mM; Conclusion (effect on udder cleft wound) [1]: No effect
CCSSCC [Di-ethyl disulfide] | – | – | – | – | – | – | – | – | – | – | – | – | IC50 ([2]; 24 h): > 4 mM; IC90 ([2]; 24 h): > 4 mM; IC50 ([3]; ATCC27853, 24 h): > 4 mM; IC90 ([3]; ATCC27853, 24 h): > 4 mM; minimal effective concentration ([4]; 20 h): > 1 mM; minimal effective concentration ([5]; ATCC27853, 20 h): > 1 mM
CSSC [Di-methyl disulfide] | – | – | – | – | – | – | – | – | – | – | – | – | IC50 ([2]; 24 h): > 4 mM; IC90 ([2]; 24 h): > 4 mM; IC50 ([3]; ATCC27853, 24 h): > 4 mM; IC90 ([3]; ATCC27853, 24 h): > 4 mM; minimal effective concentration ([4]; 20 h): > 1 mM; minimal effective concentration ([5]; ATCC27853, 20 h): > 1 mM
CCCCCCSSCCCCCC [Di-n-hexyl disulfide] | – | – | – | – | – | – | > 4 | > 4 | > 4 | > 4 | > 1 | > 1 | –
CCCSS(=O)(=O)c1ccc(C)cc1 [S-propyl-4-methylbenzene thiosulfonate] | 60 | 130 | 60 | 60 | 0.5 | >1 | – | – | – | – | – | – | –
O=S(=O)(Cc1ccccc1)SCc1ccccc1 [Di-benzyl thiosulfonate] | 2000 | 4000 | 4000 | >4000 | 0.125 | 0.125 | – | – | – | – | – | – | –
Bis(4-Chlorophenyl) thiosulfonate [Bis (4-chlorophenyl) thiosulfonate] | 30 | 60 | 250 | 2000 | >1 | >1 | – | – | – | – | – | – | –
CCCSSC [Methyl propyl disulfide] | – | – | – | – | – | – | > 4 | > 4 | > 4 | > 4 | > 1 | > 1 | –
CCCCCCCCCCS[S+]([O-])CCCCCCCCCC (stereo not drawn) [S-decyl-1-decane thiosulfinate] | >4000 | >4000 | >4000 | >4000 | >1 | >1 | – | – | – | – | – | – | –
CCCCCCCCCCSSCCCCCCCCCC [Di-n-decyl disulfide] | – | – | – | – | – | – | > 4 | > 4 | > 4 | > 4 | > 1 | > 1 | –
